Here are results for 80 compounds from the METLIN SMRT retention time set (Domingo-Almenara et al. 2019).

This data set is described as follows: gradient 5% acetonitrile 3 min, to 50% in 2 min, to 85% in 15 min, held 3 min, 100 µL/min. The following applies: column: Zorbax Extend-C18 2.1 x 50 mm; eluents: water / acetonitrile, 0.1% formic acid. A digest of the protocol:
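Each retention time is based on an adduct peak selected computationally and verified by manual inspection. Measurements used HPLC–quadrupole time-of-flight mass spectrometry in positive and negative ionization mode on mixtures of ~100 pure standards. Chromatography ran on a Zorbax Extend-C18 column (2.1 × 50 mm, 1.8 μm) at 100 μL/min with water and acetonitrile, each containing 0.1% formic acid, and dead and dwell volumes of 40 μL and 900 μL.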
The compound `CCOc1ccc(NC(=O)Cn2c(C)nc3c(sc4nc(-c5ccccc5)ccc43)c2=O)cc1` gave an RP-LC retention time of 1070 s.

Compound `COCCN1CCC(N2CCN(S(=O)(=O)c3ccccc3Cl)CC2)C1=O` (stereo not given) displayed an RP-LC retention time of 567 s.

`Cc1cc(OCC(=O)N2CCCCC2)nc(-c2ccc(Cl)cc2)n1` registered an RP-LC retention time of 790 s.

`COC(=O)c1c(-c2ccc(Cl)cc2)noc1N1CCOCC1` had an RP-LC retention time of 968 s.

As for `CCOc1ccccc1C(=O)NC1CCN(c2cc(-c3cccs3)[nH]n2)C1` (stereo not given), the RP-LC retention time came to 769 s.

Regarding `CC(=O)OCCN1c2ccccc2Sc2cnccc21`, the RP-LC retention time turned out to be 663 s.

Compound `CCOc1ccc(S(=O)(=O)N2CCCC(C(=O)NCCO)C2)cc1` (stereo not given) registered an RP-LC retention time of 662 s.

For `CCCCN1CCN(S(=O)(=O)c2ccc(-c3nnc(C4CCCC4)o3)o2)CC1`, the RP-LC retention time turned out to be 678 s.

`Cc1nn(CC(=O)NC(C)C)c(=O)c2nc(-c3ccccc3)sc12` showed an RP-LC retention time of 733 s.

Compound `CC(=O)NCC(=O)NCc1nn(Cc2ccccc2)c2ccccc12` came in with an RP-LC retention time of 679 s.

The compound `CC(C)Cn1cc(CCNC(=O)C2CCCCC2)c2cccnc21` gave an RP-LC retention time of 817 s.

In turn, `CCn1cc(C(CNC(=O)Nc2ccc(OC)cc2)c2cccnc2)c2ccccc21` (stereo not given) yielded an RP-LC retention time of 700 s.

Compound `CCCN1C(=O)CCc2cc(NS(=O)(=O)c3ccccc3C(F)(F)F)ccc21` displayed an RP-LC retention time of 860 s.

Compound `CN(C)c1cc(C(=O)NC2CC2)c2ccccc2n1` gave an RP-LC retention time of 565 s.

`Cc1cccc(-c2nc(Cn3nnc(C(=O)NCc4ccc(C(C)C)cc4)c3C)c(C)o2)c1` gave an RP-LC retention time of 1310 s.

As to `CC(=O)Nc1nsc(N2CCC(C(=O)N3CCN(c4ccc(C)cc4)CC3)CC2)n1`, the RP-LC retention time turned out to be 675 s.

For `O=c1n(CCOc2ccc(F)cc2)nc2ccc(S(=O)(=O)N3CCOCC3)cn12`, the RP-LC retention time was 811 s.

As for `COc1ccc(N2CCN(C(=O)C3CCN(CCc4c[nH]c5ncccc45)CC3)CC2)cc1`, the RP-LC retention time was 567 s.

As for `Cc1ccc(NC(=O)Cn2nc(N3CCCC3)c3ccccc3c2=O)cc1C`, the RP-LC retention time is 1000 s.

The compound `O=C(CCC1CCCC1)N1CCN(c2nnc3c(Cl)cccn23)CC1` came in with an RP-LC retention time of 691 s.

Compound `Cc1sc(NC(=O)Cc2ccccc2)nc1-c1ccc2c(c1)NC(=O)CO2` showed an RP-LC retention time of 830 s.

`COc1ccccc1-c1noc(C2CCCN2C(=O)Cc2c[nH]c3ccccc23)n1` (stereo not given) displayed an RP-LC retention time of 838 s.

`Cc1cc(N2CCOCC2)nc(N2CCN(S(=O)(=O)c3ccc4c(c3)Cc3ccccc3-4)CC2)n1` yielded an RP-LC retention time of 813 s.

As to `C[C@]12CC[C@@H]3c4ccc(O)cc4C[C@@H](CCCCCCCCCS(=O)CCCC(F)(F)C(F)(F)F)[C@H]3[C@@H]1CC[C@@H]2O` (stereo not given in full), the RP-LC retention time was 1250 s.

In the case of `Cc1ccc(-c2nc(-c3ccc4nnc(C)n4c3)no2)cc1C`, the RP-LC retention time is 1130 s.

`Cc1ccc(-c2nc3cnccn3c2Nc2ccc(C)cc2Br)cc1` gave an RP-LC retention time of 1140 s.

The compound `CCOC(=O)c1cnc2nc(C)ccc2c1Nc1ccc2c(c1)OCO2` registered an RP-LC retention time of 680 s.

As for `O=C(Nc1cnc(-c2ccccc2)nc1)c1cccc(Cl)c1`, the RP-LC retention time amounted to 1050 s.

With `CCCN1C(=O)COc2ccc(-c3noc(Cc4c[nH]c5ccccc45)n3)cc21`, the RP-LC retention time stood at 1040 s.

As to `Cc1ccc(-c2nnc(Cc3nc(-c4ccncc4)no3)o2)cc1F`, the RP-LC retention time came to 814 s.

The compound `CCN(CC)c1nc2cc(C(=O)NCC(C)C)ccc2c(=O)n1Cc1ccccc1` came in with an RP-LC retention time of 1090 s.

In turn, `Cc1cnc(-c2ccncc2)n1CCNS(=O)(=O)c1ccc2c(c1)CCC2` had an RP-LC retention time of 633 s.

In turn, `CCOc1cc(-c2noc(-c3nnn4c3COC(c3ccc(C)cc3C)C4)n2)ccc1OC` (stereo not given) returned an RP-LC retention time of 1250 s.

For `CCOC(=O)c1ccc(NC(=O)c2c(OC)cc(=O)n3c2CCCC3)cc1`, the RP-LC retention time came out at 718 s.

`COC(=O)c1c(C)c(C(=O)C(C)N(CC(C)C)C(=O)c2ccc(Cl)cc2)c(C)n1C` (stereo not given) displayed an RP-LC retention time of 1080 s.

As for `CC(C)N1CCCn2cc(S(=O)(=O)Nc3cccc(OC(F)(F)F)c3)cc2C1=O`, the RP-LC retention time worked out at 881 s.

In turn, `CC1=C(c2ccccc2)S(=O)(=O)N=C1N1CCCN(C(=O)NC(C)C)CC1` registered an RP-LC retention time of 714 s.

For the compound `CCCNC(=O)Cc1nnc(-c2ccc(C)cc2)o1`, the RP-LC retention time amounted to 710 s.

Take `COc1ccc2cc(C(=O)N3CCC(CC(=O)NCCc4c[nH]c5ccc(OC)cc45)CC3)[nH]c2c1`: the RP-LC retention time worked out at 759 s.

`CCCn1ccc2sc(C)c(C(=O)NCc3ccccc3Cl)c2c1=O` returned an RP-LC retention time of 980 s.

As for `CC(C)NC(=O)c1ccc2c(c1)nc(CN(C)C(=O)Nc1ccc3c(c1)OCO3)n2C`, the RP-LC retention time is 606 s.

Compound `Cc1ccc(CN2CCn3c(nn(C)c3=O)C2)nc1` gave an RP-LC retention time of 530 s.

Regarding `Fc1ccc(Br)cc1-c1nc2ccc(Cl)cn2c1Nc1ccc2c(c1)OCCO2`, the RP-LC retention time stood at 929 s.

Compound `O=C(NC1CCCCCC1)c1cccnc1N1CCNC(c2ccccc2)C1` (stereo not given) yielded an RP-LC retention time of 656 s.

`Cc1cc(N2CCOCC2)nc(N2CCN(C(=O)c3ccccc3Br)CC2)n1`: the RP-LC retention time was 612 s.

As for `CC(C)NC(=O)N1CCNC(=O)C1`, the RP-LC retention time amounted to 540 s.

Compound `Cc1ccc(F)c(Nc2ncccc2S(N)(=O)=O)c1` showed an RP-LC retention time of 826 s.

`CSc1cccc(NC(=O)N2CCN(C3=CC4=NC(C)CN4C=N3)CC2)c1` (stereo not given) displayed an RP-LC retention time of 638 s.

Turning to `CCOC(=O)c1ccc(Oc2ncnc(N)c2[N+](=O)[O-])cc1`, the RP-LC retention time came to 769 s.

In turn, `O=C(c1ccc2c(c1)OCO2)N1CCC2(CC1)CC(O)CCO2` (stereo not given) registered an RP-LC retention time of 590 s.

`Cc1ccc(-c2noc(-c3cccc(S(=O)(=O)Nc4cccnc4)c3)n2)cc1` displayed an RP-LC retention time of 941 s.

As to `CCOc1ccc(NC(=O)N2CCCC2c2nc(-c3ccc(OC)cc3)no2)cc1` (stereo not given), the RP-LC retention time worked out at 940 s.

Regarding `O=C(CCc1c(-c2ccc(F)cc2)nc2ccccn12)NCc1cccc(F)c1`, the RP-LC retention time worked out at 645 s.

In turn, `CN1CCN(c2ccc(-c3nc(-c4cccc(F)c4)no3)cn2)CC1` had an RP-LC retention time of 685 s.

With `CCOC(=O)c1ccc(Nc2ncccc2S(N)(=O)=O)cc1`, the RP-LC retention time was 841 s.

Consider `Cn1c(-c2ccccc2)nn(CCNS(=O)(=O)c2ccc(Cl)s2)c1=O`, for which the RP-LC retention time came out at 748 s.

`O=C(NC1CC1)c1ccccc1OCC1CCN(C(=O)C2CCCO2)CC1` (stereo not given) had an RP-LC retention time of 685 s.

As to `CCOCCCNC(=O)N1CCCC(C)(C(=O)NCc2ccc(C)cc2)C1` (stereo not given), the RP-LC retention time worked out at 740 s.

The compound `O=C(CN1C(=O)C2CCCCN2c2ccc(C(=O)N3CCCCC3)cc21)NCc1ccco1` (stereo not given) registered an RP-LC retention time of 784 s.

`Cc1ccc(-c2nc(Nc3ccc(Br)cc3)sc2CC(=O)O)c(C)c1` came in with an RP-LC retention time of 1090 s.

Regarding `COc1ccc(-c2noc(CN3N=NC4C(=O)N(c5ccc(OC)c(OC)c5)C(=O)C43)n2)c(OC)c1` (stereo not given), the RP-LC retention time came to 800 s.

`O=C(NCCc1ccccc1)C(=O)NCCc1cccs1` returned an RP-LC retention time of 832 s.

`COc1ccc(N2C(=O)C3N=NN(Cc4nc(-c5ccccc5Cl)no4)C3C2=O)cc1OC` (stereo not given) showed an RP-LC retention time of 880 s.

The compound `O=C(O)c1cc(-c2cccc3ccccc23)nc2ccc(Br)cc12` returned an RP-LC retention time of 1090 s.

In turn, `CCc1ccc(-n2cc(C(=O)O)nn2)cc1` came in with an RP-LC retention time of 727 s.

Consider `O=C(O)c1cc(=O)c2cc(Cl)ccc2[nH]1`, for which the RP-LC retention time stood at 692 s.

The compound `CN1CCn2cc(S(=O)(=O)Nc3ccc(F)cc3F)cc2C1=O` returned an RP-LC retention time of 671 s.

As to `CCOc1ccc(-n2c(=O)c3sccc3n(Cc3nc(-c4ccc(F)c(Cl)c4)no3)c2=O)cc1`, the RP-LC retention time came out at 1140 s.

For `Cc1nc2ccc3nc(NC(=O)COc4ccccc4F)sc3c2s1`, the RP-LC retention time turned out to be 877 s.

Turning to `Cc1cccc2cc(-c3noc(-c4ccccc4)n3)c(NCCc3ccc(S(N)(=O)=O)cc3)nc12`, the RP-LC retention time is 1440 s.

`Cc1ccc(C)c(N2CCN(C(=O)C3CCN(c4nccnc4Sc4ccccc4)CC3)CC2)c1` registered an RP-LC retention time of 1320 s.

In turn, `CCCn1cc(-c2ccncc2)cc1C(=O)NC1CCN(Cc2ccccc2)CC1` registered an RP-LC retention time of 561 s.

Compound `Cc1ccc(-c2ccc(N3CCCC(C(=O)NCCCN4CCOCC4)C3)nn2)cc1` (stereo not given) had an RP-LC retention time of 571 s.

In the case of `CN(CCNC(=O)c1ccc2[nH]c3c(c2c1)CN(C(=O)C1CCC1)CC3)C1CCCCC1`, the RP-LC retention time came to 646 s.

With `O=C(Nc1ccccc1)N1CCC(n2cnc3cc(F)ccc3c2=O)CC1`, the RP-LC retention time turned out to be 742 s.

Compound `Cc1cccc(-c2noc(C3CCCN3C(=O)c3ccc4c(c3)OCO4)n2)c1` (stereo not given) yielded an RP-LC retention time of 997 s.

Turning to `C#CCn1c(=O)c2c(ncn2C)n(C)c1=O`, the RP-LC retention time is 629 s.

With `COc1ccc(NC(=O)C2CCN(S(=O)(=O)c3ccc4c(c3)NC(=O)C(C)O4)CC2)cc1Cl` (stereo not given), the RP-LC retention time is 853 s.

Regarding `COc1ccc(Cl)cc1NC(=O)c1cnc(N2CCN(c3ncccn3)CC2)c2ccccc12`, the RP-LC retention time was found to be 1090 s.

As for `CSc1ccccc1CN1CCC(CNC(=O)Nc2c(F)cccc2F)CC1`, the RP-LC retention time amounted to 580 s.
